Literature values, collected in patent publication EP0523845A2, “New benzodiazepine analogs” (MERCK & CO. INC., priority 1991, dated 1993).

Details: cited from Deschodt-Lanckman et al., Reg. Pept. 2, 15 (1981)

Question: With `CSCC[C@H](NC(=O)[C@H](Cc1ccc(OS(=O)(=O)O)cc1)NC(=O)[C@@H](N)CC(=O)O)C(=O)NCC(=O)N[C@@H](Cc1c[nH]c2ccccc12)C(=O)N[C@@H](CCSC)C(=O)N[C@@H](CC(=O)O)C(=O)N[C@@H](Cc1ccccc1)C(N)=O` [CCK-8s, H-Asp-Tyr(S03H)-Met-Gly-Trp-Met-Asp-Phe-NH2] as the molecule, how does the half-life read?
Answer: less than 1 hour
